According to US10160747B2, “Compounds and methods for kinase modulation, and indications therefor” (Plexxikon Inc., priority 2016, dated 2018):

Legend:
Format in all cases: biochemical
FLT3-ITD = target: T1, FLT3-ITD (Homo sapiens, UniProt P36888); test: FLT3-ITD recombinant enzyme kinase assay (AlphaScreen); conditions: 8 pt; read-out: FLT3_ITD 8 pt: IC50
T1 sequence (P36888 1-993): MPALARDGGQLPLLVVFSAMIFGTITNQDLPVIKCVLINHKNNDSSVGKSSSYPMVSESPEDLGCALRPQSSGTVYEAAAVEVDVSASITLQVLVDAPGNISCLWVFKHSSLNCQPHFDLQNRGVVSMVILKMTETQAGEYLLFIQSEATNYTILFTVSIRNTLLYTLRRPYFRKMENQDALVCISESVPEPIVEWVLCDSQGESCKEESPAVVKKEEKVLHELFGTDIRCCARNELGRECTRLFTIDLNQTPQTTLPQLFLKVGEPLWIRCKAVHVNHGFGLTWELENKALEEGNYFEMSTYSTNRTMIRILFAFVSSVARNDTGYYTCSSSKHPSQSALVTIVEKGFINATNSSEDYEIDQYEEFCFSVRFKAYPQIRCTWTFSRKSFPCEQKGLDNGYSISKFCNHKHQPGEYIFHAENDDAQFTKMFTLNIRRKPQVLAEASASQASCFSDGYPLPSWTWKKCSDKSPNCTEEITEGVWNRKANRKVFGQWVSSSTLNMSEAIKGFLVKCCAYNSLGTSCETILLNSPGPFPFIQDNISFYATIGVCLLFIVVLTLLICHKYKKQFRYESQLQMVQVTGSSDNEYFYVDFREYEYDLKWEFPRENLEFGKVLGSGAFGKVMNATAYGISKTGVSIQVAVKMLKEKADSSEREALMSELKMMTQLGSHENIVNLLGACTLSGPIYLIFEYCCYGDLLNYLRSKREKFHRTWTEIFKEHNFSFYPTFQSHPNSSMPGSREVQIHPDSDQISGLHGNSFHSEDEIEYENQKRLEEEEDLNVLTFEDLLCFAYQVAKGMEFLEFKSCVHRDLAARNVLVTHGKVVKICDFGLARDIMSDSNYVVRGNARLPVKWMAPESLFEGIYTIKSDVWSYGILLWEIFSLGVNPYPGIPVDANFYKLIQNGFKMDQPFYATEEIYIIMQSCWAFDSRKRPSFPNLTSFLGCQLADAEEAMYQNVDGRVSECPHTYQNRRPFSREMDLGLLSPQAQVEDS
Method in brief: (§1)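 AlphaScreen proximity signal at 580 nm, from PY20 acceptor and streptavidin donor beads, measures tyrosine phosphorylation of 30 nM biotin-poly(Glu4-Tyr) peptide by recombinant kinase. ATP: 10 μM (FLT3 mutants), 100 μM (c-KIT). IC50 from loss of signal.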

FLT3-D835Y = target: T2, FLT3-D835Y (Homo sapiens, UniProt P36888, D835Y); test: FLT3-D835Y recombinant enzyme kinase assay (AlphaScreen); conditions: 8 pt, GMean
T2 construct: purchased Invitrogen PV3967
T2 sequence (P36888 27-993 D835Y): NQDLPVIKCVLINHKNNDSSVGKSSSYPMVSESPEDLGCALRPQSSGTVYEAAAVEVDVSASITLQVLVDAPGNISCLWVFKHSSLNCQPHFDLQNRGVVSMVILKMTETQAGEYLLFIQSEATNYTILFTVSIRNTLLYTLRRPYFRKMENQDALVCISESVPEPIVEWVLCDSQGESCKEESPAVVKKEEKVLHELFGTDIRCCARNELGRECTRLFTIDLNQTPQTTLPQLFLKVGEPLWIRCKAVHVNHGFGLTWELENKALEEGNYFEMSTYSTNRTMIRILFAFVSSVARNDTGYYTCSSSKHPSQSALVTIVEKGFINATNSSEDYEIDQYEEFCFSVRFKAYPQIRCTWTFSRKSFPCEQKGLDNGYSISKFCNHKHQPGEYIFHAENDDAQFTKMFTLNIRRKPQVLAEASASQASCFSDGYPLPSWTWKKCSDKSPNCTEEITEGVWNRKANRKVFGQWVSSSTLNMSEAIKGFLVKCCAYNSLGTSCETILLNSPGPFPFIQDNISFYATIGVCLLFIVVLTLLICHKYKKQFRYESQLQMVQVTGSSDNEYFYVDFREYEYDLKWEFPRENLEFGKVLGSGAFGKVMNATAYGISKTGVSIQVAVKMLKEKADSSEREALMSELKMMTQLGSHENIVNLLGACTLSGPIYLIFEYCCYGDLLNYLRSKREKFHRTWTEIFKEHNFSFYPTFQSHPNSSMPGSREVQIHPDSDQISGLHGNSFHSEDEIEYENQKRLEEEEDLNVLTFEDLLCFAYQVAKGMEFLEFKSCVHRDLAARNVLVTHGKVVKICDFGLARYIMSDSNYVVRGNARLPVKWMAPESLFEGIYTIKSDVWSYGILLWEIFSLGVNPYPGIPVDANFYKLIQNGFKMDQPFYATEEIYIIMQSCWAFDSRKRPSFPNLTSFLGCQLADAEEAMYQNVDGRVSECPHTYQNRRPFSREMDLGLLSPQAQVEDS
Method in brief: as §1

c-KIT = target: T3, c-KIT (Homo sapiens, UniProt P10721); test: c-KIT recombinant enzyme kinase assay (AlphaScreen); conditions: 100 ATP, 8 pt
T3 construct: purchased Millipore 14-559K
T3 sequence (P10721 26-976): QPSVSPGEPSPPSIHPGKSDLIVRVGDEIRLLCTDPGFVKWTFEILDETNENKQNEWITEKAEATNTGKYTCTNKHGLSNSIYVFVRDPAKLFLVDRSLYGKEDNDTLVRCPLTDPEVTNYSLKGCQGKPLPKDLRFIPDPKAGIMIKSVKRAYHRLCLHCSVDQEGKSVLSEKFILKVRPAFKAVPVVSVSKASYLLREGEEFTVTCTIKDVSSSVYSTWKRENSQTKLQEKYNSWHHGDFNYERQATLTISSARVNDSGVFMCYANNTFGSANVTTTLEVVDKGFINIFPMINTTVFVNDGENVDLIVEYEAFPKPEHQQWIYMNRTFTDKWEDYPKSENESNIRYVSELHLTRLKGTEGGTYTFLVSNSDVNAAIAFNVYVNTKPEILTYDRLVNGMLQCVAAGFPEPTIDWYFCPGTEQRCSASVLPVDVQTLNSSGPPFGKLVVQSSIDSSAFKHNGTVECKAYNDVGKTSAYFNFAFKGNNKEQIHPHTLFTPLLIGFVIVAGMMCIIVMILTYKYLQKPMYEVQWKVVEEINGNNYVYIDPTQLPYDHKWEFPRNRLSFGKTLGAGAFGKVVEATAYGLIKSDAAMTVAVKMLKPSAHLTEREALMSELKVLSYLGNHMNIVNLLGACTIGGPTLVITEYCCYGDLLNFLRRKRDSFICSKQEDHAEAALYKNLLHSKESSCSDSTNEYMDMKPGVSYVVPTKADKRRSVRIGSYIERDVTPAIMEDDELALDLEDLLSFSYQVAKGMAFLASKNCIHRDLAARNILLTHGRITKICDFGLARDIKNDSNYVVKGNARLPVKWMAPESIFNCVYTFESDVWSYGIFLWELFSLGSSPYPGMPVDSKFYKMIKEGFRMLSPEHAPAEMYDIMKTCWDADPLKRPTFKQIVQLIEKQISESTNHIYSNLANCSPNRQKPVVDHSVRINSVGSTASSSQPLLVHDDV
Method in brief: as §1

Measured: IC50

CC(C)(C)c1ccc(NC(=O)Cc2ccc(-c3cnc4[nH]cc(F)c4c3)cc2F)cn1 [Compound P-0043, N-(6-tert-butyl-3-pyridyl)-2-[2-fluoro-4-(3-fluoro-1H-pyrrolo[2,3-b]pyridin-5-yl)phenyl]acetamide]
0.0001 to 10 µM: all assays above

O=C(Cc1ccc(-c2cnc3[nH]cc(Cl)c3n2)cc1F)Nc1cnc(Cl)c(C(F)(F)F)c1 [Compound P-0060, 2-[4-(7-chloro-5H-pyrrolo[2,3-b]pyrazin-2-yl)-2-fluoro-phenyl]-N-[6-chloro-5-(trifluoromethyl)-3-pyridyl]acetamide]
0.0001 to 10 µM: all assays above

CC(=O)c1c[nH]c2ncc(-c3ccc(CC(=O)Nc4ccnc(C(F)(F)F)c4)c(F)c3)cc12 [Compound P-0031, 2-(4-(3-acetyl-1H-pyrrolo[2,3-b]pyridin-5-yl)-2-fluorophenyl)-N-(2-(trifluoromethyl)pyridin-4-yl)acetamide]
0.0001 to 10 µM: all assays above

CC(=O)c1c[nH]c2ncc(-c3ccc(CC(=O)Nc4cnc(C)c(C(F)(F)F)c4)c(F)c3)cc12 [Compound P-0063, 2-[4-(3-acetyl-1H-pyrrolo[2,3-b]pyridin-5-yl)-2-fluoro-phenyl]-N-[6-methyl-5-(trifluoromethyl)-3-pyridyl]acetamide]
0.0001 to 10 µM: all assays above

COc1ncc(NC(=O)Cc2ccc(-c3cnc4[nH]cc(C(C)=O)c4c3)cc2F)cc1C(F)(F)F [Compound P-0035, 2-[4-(3-acetyl-1H-pyrrolo[2,3-b]pyridin-5-yl)-2-fluoro-phenyl]-N-[6-methoxy-5-(trifluoromethyl)-3-pyridyl]acetamide]
0.0001 to 10 µM: all assays above

O=C(Cc1ccc(-c2cnc(Nc3cnn(C(F)F)c3)nc2)c(F)c1)Nc1cc(C(F)(F)F)ccn1 [Compound P-0024, 2-[4-[2-[[1-(difluoromethyl)pyrazol-4-yl]amino]pyrimidin-5-yl]-3-fluoro-phenyl]-N-[4-(trifluoromethyl)-2-pyridyl]acetamide]
0.0001 to 10 µM: all assays above

COc1ncc(NC(=O)Cc2ccc(-c3cnc(Nc4cn[nH]c4)nc3)cc2F)cc1C(F)(F)F [Compound P-0026, 2-[2-fluoro-4-[2-(1H-pyrazol-4-ylamino)pyrimidin-5-yl]phenyl]-N-[6-methoxy-5-(trifluoromethyl)-3-pyridyl]acetamide]
0.0001 to 10 µM: all assays above

Cn1cc(Nc2ncc(-c3ccc(CC(=O)Nc4cc(C(F)(F)F)ccn4)c(F)c3)cn2)cn1 [Compound P-0082, 2-[2-fluoro-4-[2-[(1-methylpyrazol-4-yl)amino]pyrimidin-5-yl]phenyl]-N-[4-(trifluoromethyl)-2-pyridyl]acetamide]
0.0001 to 10 µM: all assays above

Cc1ncc(NC(=O)Cc2ccc(-c3cnc4[nH]cc(Cl)c4n3)cc2)cc1C(F)(F)F [Compound P-0079, 2-(4-(7-chloro-5H-pyrrolo[2,3-b]pyrazin-2-yl)phenyl)-N-(6-methyl-5-(trifluoromethyl)pyridin-3-yl)acetamide]
0.0001 to 10 µM: all assays above

COc1nn(C[C@H](C)O)cc1Nc1ncc(-c2ccc(CC(=O)Nc3cncc(C(F)(F)F)c3)c(F)c2)cn1 [Compound P-0050, 2-[2-fluoro-4-[2-[[1-[(2S)-2-hydroxypropyl]-3-methoxy-pyrazol-4-yl]amino]pyrimidin-5-yl]phenyl]-N-[5-(trifluoromethyl)-3-pyridyl]acetamide]
0.0001 to 10 µM: all assays above

Cc1nn(C)cc1Nc1ncc(-c2ccc(CC(=O)Nc3cnc(C)c(C(F)(F)F)c3)c(F)c2)cn1 [Compound P-0077, 2-[4-[2-[(1,3-dimethylpyrazol-4-yl)amino]pyrimidin-5-yl]-2-fluoro-phenyl]-N-[6-methyl-5-(trifluoromethyl)-3-pyridyl]acetamide]
0.0001 to 10 µM: all assays above

Cc1ncc(NC(=O)Cc2ccc(-c3cnc4[nH]nc(C5CC5)c4c3)cc2F)cc1C(F)(F)F [Compound P-0066, 2-(4-(3-cyclopropyl-1H-pyrazolo[3,4-b]pyridin-5-yl)-2-fluorophenyl)-N-(6-methyl-5-(trifluoromethyl)pyridin-3-yl)acetamide]
0.0001 to 10 µM: all assays above

COc1ncc(NC(=O)Cc2ccc(-c3cnc(Nc4cn[nH]c4)nc3)cc2)cc1C(F)(F)F [Compound P-0025, N-[6-methoxy-5-(trifluoromethyl)-3-pyridyl]-2-[4-[2-(1H-pyrazol-4-ylamino)pyrimidin-5-yl]phenyl]acetamide]
0.0001 to 10 µM: all assays above

O=C(Cc1ccc(-c2cnc3[nH]cc(C(=O)C4CC4)c3c2)cc1F)Nc1ccnc(C(F)(F)F)c1 [Compound P-0032, 2-[4-[3-(cyclopropanecarbonyl)-1H-pyrrolo[2,3-b]pyridin-5-yl]-2-fluoro-phenyl]-N-[2-(trifluoromethyl)-4-pyridyl]acetamide]
0.0001 to 10 µM: all assays above

COc1ncc(NC(=O)Cc2ccc(-c3cnc4[nH]cc(F)c4c3)cc2F)cc1C(F)(F)F [Compound P-0034, 2-[2-fluoro-4-(3-fluoro-1H-pyrrolo[2,3-b]pyridin-5-yl)phenyl]-N-[6-methoxy-5-(trifluoromethyl)-3-pyridyl]acetamide]
0.0001 to 10 µM: all assays above
